Data: ChEMBL document CHEMBL1201862, “PubChem BioAssay data set” (2004)
Calls of active or inactive are those of the source.

Legend:
[1] = intracellular Trypanosoma cruzi inhibitors in host cells – cell-based, plate reader, cherry-pick samples, set 3, dose response (AID 651818); assay type: functional;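 note: compounds incubated with infected cells for about four days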
Protein RecA = target: T1, Protein RecA (Mycobacterium tuberculosis, UniProt P9WHJ3); assay: Fluorescence Cell-Free Homogeneous Dose Retest to Identify Inhibitors of RecA-Intein Splicing Activity. [Related pubchem assays (depositor defined):AID2097, AID2223, AID489010, AID492950]; assay type: functional
T1 sequence (P9WHJ3 whole entry): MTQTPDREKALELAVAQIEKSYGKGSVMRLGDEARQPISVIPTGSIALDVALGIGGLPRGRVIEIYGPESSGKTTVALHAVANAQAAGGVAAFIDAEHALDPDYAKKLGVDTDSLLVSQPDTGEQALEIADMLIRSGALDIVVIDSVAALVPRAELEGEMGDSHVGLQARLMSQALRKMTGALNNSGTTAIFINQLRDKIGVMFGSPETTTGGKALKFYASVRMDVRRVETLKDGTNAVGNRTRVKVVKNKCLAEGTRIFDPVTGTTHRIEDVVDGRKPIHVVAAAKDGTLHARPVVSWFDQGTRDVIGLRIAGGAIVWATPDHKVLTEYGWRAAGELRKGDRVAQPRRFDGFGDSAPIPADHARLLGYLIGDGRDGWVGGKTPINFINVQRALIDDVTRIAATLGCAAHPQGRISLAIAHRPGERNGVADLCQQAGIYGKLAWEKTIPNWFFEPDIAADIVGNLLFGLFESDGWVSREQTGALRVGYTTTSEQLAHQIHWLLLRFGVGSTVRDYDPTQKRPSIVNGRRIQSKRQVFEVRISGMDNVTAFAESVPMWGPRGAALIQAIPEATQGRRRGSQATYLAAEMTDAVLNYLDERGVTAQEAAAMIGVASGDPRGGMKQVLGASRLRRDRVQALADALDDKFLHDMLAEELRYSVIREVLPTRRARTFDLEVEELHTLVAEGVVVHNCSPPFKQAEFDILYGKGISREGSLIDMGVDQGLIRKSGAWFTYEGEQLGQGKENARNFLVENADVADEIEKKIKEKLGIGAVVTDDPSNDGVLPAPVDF

[2] = target: T2, Replicative DNA helicase DnaB (Mycobacterium tuberculosis, UniProt P9WMR3); assay: DnaB intein splicing inhibitors, dose response, biochemical, cell-free fluorescence (AID 449749); assay type: functional
T2 sequence (P9WMR3 whole entry): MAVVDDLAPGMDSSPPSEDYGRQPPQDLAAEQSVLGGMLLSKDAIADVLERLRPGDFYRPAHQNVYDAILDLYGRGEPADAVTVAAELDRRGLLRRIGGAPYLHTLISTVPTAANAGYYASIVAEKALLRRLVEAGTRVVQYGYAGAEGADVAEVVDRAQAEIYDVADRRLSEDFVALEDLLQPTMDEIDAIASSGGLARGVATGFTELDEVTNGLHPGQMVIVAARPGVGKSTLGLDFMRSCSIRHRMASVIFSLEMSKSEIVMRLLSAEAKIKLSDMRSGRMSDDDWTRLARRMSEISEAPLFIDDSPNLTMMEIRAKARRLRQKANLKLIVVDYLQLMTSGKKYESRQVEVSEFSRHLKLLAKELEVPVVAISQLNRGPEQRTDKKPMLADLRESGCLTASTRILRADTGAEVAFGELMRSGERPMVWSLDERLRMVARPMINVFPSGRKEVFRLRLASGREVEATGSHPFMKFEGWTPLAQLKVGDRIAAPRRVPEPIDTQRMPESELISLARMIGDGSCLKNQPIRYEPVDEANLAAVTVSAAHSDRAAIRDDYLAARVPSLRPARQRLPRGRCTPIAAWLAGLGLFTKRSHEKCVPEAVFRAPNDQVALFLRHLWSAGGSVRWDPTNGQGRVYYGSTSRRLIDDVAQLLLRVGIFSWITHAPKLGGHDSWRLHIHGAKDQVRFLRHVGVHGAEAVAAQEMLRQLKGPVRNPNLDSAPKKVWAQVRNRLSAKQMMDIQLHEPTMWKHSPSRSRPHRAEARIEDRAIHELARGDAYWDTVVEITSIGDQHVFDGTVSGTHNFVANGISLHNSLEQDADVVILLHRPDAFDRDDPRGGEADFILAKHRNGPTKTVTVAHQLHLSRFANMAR

[3] = Luminescence Cell-Based Dose Retest to Confirm Inhibitors of Cancer Stem Cells. [Related pubchem assays (depositor defined):AID2717, AID2721]; assay type: functional; conditions: Homo sapiens
Cytochrome P450 2D6 = Cytochrome P450 2D6 (Homo sapiens, UniProt P10635);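 note: CYP2D6 member of a cytochrome P450 panel assay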
Cytochrome P450 2C9 [4] = target: T3, Cytochrome P450 2C9 (Homo sapiens, UniProt P11712)
[5] = target: Heat shock protein HSP 90-alpha (Homo sapiens, UniProt P07900); assay type: functional, organism-based
P388 = assay: cells; assay type: functional; conditions: Mus musculus;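 note: compound exposure lasted 48 hours before growth was measured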
Cytochrome P450 3A4 = Cytochrome P450 3A4 (Homo sapiens, UniProt P08684);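 note: CYP3A4 tested as one member of a cytochrome P450 panel screen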
H4 = assay: Luminescence Cell-Based Dose Response HTS to Identify Activators of 5'UTR Stem-Loop Driven Prion Protein mRNA Translation in H4 Neuroglioblastoma Cells. [Related pubchem assays: 1829 (Project Summary), 1814 (Primary HTS)]; assay type: functional; conditions: Homo sapiens
[6] = viability of PTEN-deleted HCT116 cells – cell-based, HCT116 PTEN knockout, dose response (AID 1047); assay type: functional;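 note: HCT116 colon tumor cells with PTEN knocked out; cells exposed to compound for 60 hours before readout; potency for loss of cell viability measured by luminescence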
[7] = system: Streptococcus sp. 'group A'; assay: Streptococcus pyogenes SK(-)GAS viability under kanamycin – luminescence, BacTiterGlo, confirmation, counter-screen for streptokinase expression inhibitor project, dose response (AID 1900); assay type: functional, organism-based
Streptococcus = assay: GAS UMAA2166 growth inhibition – luminescence, BacTiterGlo, counter-screen for streptokinase expression inhibitor project, dose response (AID 1915); assay type: functional, organism-based;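 note: potency for reduction of bacterial viability or growth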
[8] = Luminescence Cell-Based Dose Response HTS to Identify Activators of Luciferase Translation or Activity in H4 […] Cells. [Related pubchem assays: 1829 (Project Summary), 1814 (Primary HTS)]; assay type: functional
Cytochrome P450 1A2 = target: T4, Cytochrome P450 1A2 (Homo sapiens, UniProt P05177);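 note: PubChem cytochrome P450 panel assay, CYP1A2 panel member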
T4 sequence (P05177 whole entry): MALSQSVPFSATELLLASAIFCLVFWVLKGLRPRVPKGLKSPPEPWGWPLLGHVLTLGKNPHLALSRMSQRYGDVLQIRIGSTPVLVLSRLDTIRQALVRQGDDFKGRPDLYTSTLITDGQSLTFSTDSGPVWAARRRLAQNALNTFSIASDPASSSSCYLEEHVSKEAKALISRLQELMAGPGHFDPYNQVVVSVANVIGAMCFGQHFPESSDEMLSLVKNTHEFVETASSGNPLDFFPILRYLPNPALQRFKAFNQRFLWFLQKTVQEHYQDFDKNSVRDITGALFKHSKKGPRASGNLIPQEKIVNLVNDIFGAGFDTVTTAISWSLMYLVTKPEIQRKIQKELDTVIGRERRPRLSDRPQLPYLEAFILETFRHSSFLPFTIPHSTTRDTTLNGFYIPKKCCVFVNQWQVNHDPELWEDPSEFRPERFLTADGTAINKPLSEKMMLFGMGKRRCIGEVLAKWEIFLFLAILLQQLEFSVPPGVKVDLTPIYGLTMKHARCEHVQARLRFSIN

Cytochrome P450 2C9 [9] = target: T3, Cytochrome P450 2C9; remark: listed apart in the source
[10] = Luminescence Cell-Based Dose Confirmation HTS to Identify Activators of 5'UTR Stem-Loop Driven Alpha-Synuclein mRNA Translation in H4 Neuroglioblastoma Cells. [Related pubchem assays: 1829 (Project Summary), 1814 (Primary HTS)]; assay type: functional
[11] = viability of HCT116 lacking mutant beta-catenin – cell-based, human colon tumor, dose response (AID 1045); assay type: functional;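 note: HCT116 colon tumor cells with beta catenin knocked out; cells exposed to compound for 60 hours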
Cytochrome P450 2C19 = Cytochrome P450 2C19 (Homo sapiens, UniProt P33261); assay: Cytochrome panel assay with activity outcomes. Panel member name: p450-cyp2c19 Compounds with AC50 equal or less than 10 uM are considered active; assay type: functional; conditions: read-out: AC50
Sequence of Cytochrome P450 2C19 (P33261 whole entry): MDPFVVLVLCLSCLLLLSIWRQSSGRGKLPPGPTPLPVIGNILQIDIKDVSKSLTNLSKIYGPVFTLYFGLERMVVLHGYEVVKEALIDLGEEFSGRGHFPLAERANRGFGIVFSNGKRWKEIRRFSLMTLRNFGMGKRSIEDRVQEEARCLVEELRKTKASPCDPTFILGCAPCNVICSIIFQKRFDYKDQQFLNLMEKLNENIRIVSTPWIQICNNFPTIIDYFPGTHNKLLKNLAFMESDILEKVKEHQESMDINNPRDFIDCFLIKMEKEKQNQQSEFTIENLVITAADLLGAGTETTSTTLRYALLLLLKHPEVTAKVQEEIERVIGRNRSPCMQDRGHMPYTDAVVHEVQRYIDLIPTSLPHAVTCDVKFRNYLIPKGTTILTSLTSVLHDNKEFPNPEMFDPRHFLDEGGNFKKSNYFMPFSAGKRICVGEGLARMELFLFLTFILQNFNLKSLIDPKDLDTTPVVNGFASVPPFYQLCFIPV

T3 sequence (P11712 whole entry): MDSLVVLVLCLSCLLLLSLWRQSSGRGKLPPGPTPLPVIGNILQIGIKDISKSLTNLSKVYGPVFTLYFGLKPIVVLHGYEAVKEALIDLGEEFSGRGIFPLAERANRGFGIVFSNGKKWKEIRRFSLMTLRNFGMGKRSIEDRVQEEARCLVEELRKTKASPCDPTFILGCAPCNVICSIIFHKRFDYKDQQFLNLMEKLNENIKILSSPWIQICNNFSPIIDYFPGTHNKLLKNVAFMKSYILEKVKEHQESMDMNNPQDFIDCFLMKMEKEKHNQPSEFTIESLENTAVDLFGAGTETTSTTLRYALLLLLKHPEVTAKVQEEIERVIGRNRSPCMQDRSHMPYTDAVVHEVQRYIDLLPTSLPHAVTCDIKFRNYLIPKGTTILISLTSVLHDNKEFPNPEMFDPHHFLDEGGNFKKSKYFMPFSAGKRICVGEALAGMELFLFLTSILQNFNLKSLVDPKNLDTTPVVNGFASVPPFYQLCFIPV
Sequence of Cytochrome P450 2D6 (P10635 whole entry): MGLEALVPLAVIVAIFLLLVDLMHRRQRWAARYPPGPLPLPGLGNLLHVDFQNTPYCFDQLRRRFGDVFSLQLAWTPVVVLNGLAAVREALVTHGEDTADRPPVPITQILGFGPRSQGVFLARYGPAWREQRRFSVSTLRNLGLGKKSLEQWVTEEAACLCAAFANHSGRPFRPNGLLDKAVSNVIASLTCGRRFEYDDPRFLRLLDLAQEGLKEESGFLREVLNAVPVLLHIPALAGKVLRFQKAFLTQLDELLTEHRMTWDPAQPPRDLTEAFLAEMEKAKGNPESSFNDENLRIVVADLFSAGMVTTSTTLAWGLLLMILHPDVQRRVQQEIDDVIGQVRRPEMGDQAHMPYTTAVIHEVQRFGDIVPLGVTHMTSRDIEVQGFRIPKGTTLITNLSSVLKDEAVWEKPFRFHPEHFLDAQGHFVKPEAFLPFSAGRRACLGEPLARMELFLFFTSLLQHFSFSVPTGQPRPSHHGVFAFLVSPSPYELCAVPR
Sequence of Cytochrome P450 3A4 (P08684 whole entry): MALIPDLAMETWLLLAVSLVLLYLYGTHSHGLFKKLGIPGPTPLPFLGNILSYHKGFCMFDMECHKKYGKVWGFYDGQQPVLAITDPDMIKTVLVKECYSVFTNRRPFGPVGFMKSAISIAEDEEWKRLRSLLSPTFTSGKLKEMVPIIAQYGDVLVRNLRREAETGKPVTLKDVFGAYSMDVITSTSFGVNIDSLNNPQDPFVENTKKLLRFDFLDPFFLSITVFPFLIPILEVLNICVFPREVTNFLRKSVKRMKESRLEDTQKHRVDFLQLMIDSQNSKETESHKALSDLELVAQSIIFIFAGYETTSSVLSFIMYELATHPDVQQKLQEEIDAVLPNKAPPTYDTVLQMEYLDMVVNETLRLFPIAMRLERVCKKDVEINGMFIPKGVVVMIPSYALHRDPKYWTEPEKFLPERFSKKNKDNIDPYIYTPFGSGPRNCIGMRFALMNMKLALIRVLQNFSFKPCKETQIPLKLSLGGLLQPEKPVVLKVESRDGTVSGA

SMILES: C[C@H]1CN([C@@H](C)CO)C(=O)Cc2cc(NC(=O)NC3CCCCC3)ccc2O[C@H]1CN(C)Cc1ccc(C(=O)Nc2ccccc2N)cc1
- AC50 [1]: 2.97 µM (active)

SMILES: C[C@H]1CN([C@@H](C)CO)C(=O)c2cccc(NC(=O)Nc3ccc4c(c3)OCO4)c2O[C@@H]1CN(C)Cc1ccc(C(=O)Nc2ccccc2N)cc1
- AC50 [1]: 2.18 µM (active)

SMILES: C[C@@H]1CN([C@H](C)CO)C(=O)Cc2cc(NC(=O)Nc3ccccc3)ccc2O[C@@H]1CN(C)Cc1ccc(C(=O)Nc2ccccc2N)cc1
- AC50 [1]: 3.23 µM (active)

SMILES: COc1cc(C2NC(=O)C(C#N)=C(Nc3cccc(C)c3)S2)ccc1O (stereo not drawn)
- EC50 (Protein RecA): 20 µM (active)
- AC50 [2]: 42 µM (active)

SMILES: C[C@@H]1CN([C@H](C)CO)C(=O)Cc2cc(NS(=O)(=O)c3ccc(F)cc3)ccc2O[C@@H]1CN(C)S(=O)(=O)c1ccc(Cl)cc1
- AC50 [1]: 2.31 µM (active)

SMILES: C[C@@H]1CN([C@H](C)CO)C(=O)Cc2cc(NC(=O)Nc3ccc(F)cc3)ccc2O[C@H]1CN(C)Cc1ccc(C(F)(F)F)cc1
- AC50 [1]: 7.02 µM (active)

SMILES: COc1cc(C2(c3ccc(O)c(OC)c3)C(=O)Nc3c(Br)cc(Br)cc32)ccc1O
- EC50 (Protein RecA): 4.77 µM (active)
- AC50 [2]: 3.13 µM (active)

SMILES: C[C@H](CO)N1C[C@H](C)[C@@H](CN(C)C(=O)Nc2ccc(C(F)(F)F)cc2)Oc2c(NC(=O)Nc3ccc(C(F)(F)F)cc3)cccc2C1=O
- AC50 [3]: 3.73 µM (active)
- AC50 [1]: 7.68 µM (active)

SMILES: COCCNc1ncnc2ccc(-c3ccccc3OC)cc12
- AC50 (Cytochrome P450 2D6): 39.8 µM (inconclusive)

SMILES: O=C(c1ccc([N+](=O)[O-])cc1)[C@@H](Br)[C@@H](Br)c1ccnc2ccccc12
- AC50 (Cytochrome P450 2D6): 3.98 µM (inconclusive)

SMILES: CCOc1cc(/C=C2/C(=N)N3OC(C)=CC3=NC2=O)ccc1O
- EC50 (Protein RecA): 26.9 µM (active)
- AC50 [2]: 95.1 µM (active)

SMILES: CCOC(=O)CSC1=C(C#N)C(c2sccc2C)C(C(C)=O)=C(C)N1 (stereo not drawn)
- AC50 (Cytochrome P450 2D6): 35.5 µM (inconclusive)

SMILES: O=c1c(-c2cccs2)nc2cncnc2n1Cc1ccc(F)cc1
- AC50 (Cytochrome P450 2C9 [4]): 1 µM (inconclusive)
- AC50 (Cytochrome P450 2D6): 0.631 µM (inconclusive)

SMILES: COc1ccc(CN(C)C[C@@H]2Oc3ccc(NC(=O)Cc4ccccc4)cc3CC(=O)N([C@@H](C)CO)C[C@@H]2C)cc1
- AC50 [1]: 4.08 µM (active)

SMILES: C[N+](C)(C)C1=NNC2=Nc3ccccc3SC2=C1
- AC50 (Cytochrome P450 2D6): 3.98 µM (inconclusive)

SMILES: CC1CCN(C(CC(=O)c2ccccc2)C(=O)c2ccccc2)CC1 (stereo not drawn)
- AC50 [5]: 7.7 µM (active)

SMILES: COc1ccc2c3c(c4cc(OC)c(OC)cc4c2c1)C[C@H]1CCCCN1C3 [CRYPTOPLEURINE]
- GI50 (P388): 0.005 µM (active)

SMILES: CCOC(=O)CC1=NN(c2ccccc2)C(=O)C1
- EC50 (Protein RecA): 10.1 µM (active)
- AC50 [2]: 13.1 µM (active)

SMILES: COC(=O)c1cc([N+](=O)[O-])c(-n2ccnc2)c([N+](=O)[O-])c1
- EC50 (Protein RecA): 4.53 µM (active)
- AC50 [2]: 6.54 µM (active)

SMILES: CC(C)c1n[nH]c2c1C(c1cccs1)C(C#N)=C(N)O2 (stereo not drawn)
- EC50 (Protein RecA): 4.29 µM (active)
- AC50 [2]: 10.8 µM (active)

SMILES: CN(C)C(=O)c1ccc(-c2nc(Nc3ccc(F)cc3)c3ccccc3n2)cc1
- AC50 (Cytochrome P450 2D6): 25.1 µM (inconclusive)
- AC50 (Cytochrome P450 3A4): 20 µM (inconclusive)

SMILES: O=C(Cn1cc(C(=O)c2ccco2)c2ccccc21)NCc1ccco1
- AC50 (Cytochrome P450 2D6): 22.4 µM (inconclusive)

SMILES: O=C(N/N=C/c1c[nH]c2ccccc12)c1cc(-c2ccc(-c3ccccc3)cc2)[nH]n1
- EC50 (H4): > 120 µM (not active)
- EC50 [6]: 5.81 µM (active)
- EC50 [7]: 3.46 µM (active)
- EC50 (Streptococcus): 1.56 µM (active)
- EC50 [8]: 0.166 µM (active)
- AC50 (Cytochrome P450 1A2): 3.16 µM (inconclusive)
- AC50 (Cytochrome P450 2C9 [9]): inconclusive
- EC50 [10]: 0.219 µM (active)
- EC50 [11]: 8.8 µM (active)
- AC50 (Cytochrome P450 2C19): 6.31 µM (inconclusive)

SMILES: COC(=O)[C@@]1(Cc2ccc(F)cc2)[C@H]2c3cc(C(=O)N(C)C)n(Cc4ccc(C)c(F)c4F)c3C[C@H]2CN1C(=O)c1ccccc1
- AC50 (Cytochrome P450 2D6): 20 µM (inconclusive)

SMILES: CCCCCCOc1ccc(N2C(=O)CC(N3CCC(C(=O)OCC)CC3)C2=O)cc1 (stereo not drawn)
- AC50 [5]: 2.3 µM (active)

SMILES: C[C@H](CO)N1C[C@H](C)[C@@H](CN(C)S(=O)(=O)c2cn(C)cn2)Oc2c(cccc2N(C)C)C1=O
- AC50 [1]: 15.8 µM (active)

SMILES: COc1cc2c(cc1OC)-c1cc3ccc(OC)c(OC)c3c[n+]1CC2 [PALMITINE]
- AC50 (Cytochrome P450 2D6): 12.6 µM (inconclusive)

SMILES: CCn1c(COc2ccc(OC)cc2)nc2ccccc21
- AC50 (Cytochrome P450 2D6): 17.8 µM (inconclusive)
- AC50 (Cytochrome P450 2C9 [9]): inconclusive

SMILES: Cc1ccc(S(=O)(=O)Nc2cccc3c2O[C@H](CN(C)C(=O)Nc2ccc4c(c2)OCO4)[C@H](C)CN([C@H](C)CO)C3=O)cc1
- AC50 [1]: 20 µM (inactive)
